What was measured:
Type in all cases: cell-based, mouse
Flk1+ MPCs [1] = test: Cell adhesion assay, Flk1+ MPCs; conditions: 6 hrs
Method: Sorted Flk1+ MPCs or ICAM2+ ECs were plated onto Matrigel coated plates at a density of 10,000 cells/cm^2. Six hrs after plating, non-adherent cells were removed by washing and the cell number of adherent cells was counted following trypsinization. The percentage of adherent cells was calculated as (counted cell number/initial seeded cell number)×100.

Flk1+ MPCs [2] = test: CM differentiation from Flk1+ MPCs in OP9 co-culture system
Method: EMG7 mouse ESCs which have ┌-myosin heavy chain (MHC) promoter driven enhanced green fluorescent protein (GFP) gene and OP9 cells were a generous gift from Dr. Jun K. Yamashita (Kyoto University). EMG7 ESCs were plated on a 0.1% gelatin coated 60p dish and maintained in a medium (GMEM, Invitrogen) containing 10% knockout serum, 2-mercaptoethanol (Invitrogen), sodium pyruvate (Invitrogen), non-essential amino acid and antibiotics (Invitrogen). leukemia inhibitory factor (LIF), Blasticidin (Invitrogen) and G418 (Invitrogen) were added in the medium at the time of the medium change. OP9 cells were maintained in a medium (alpha MEM, Invitrogen) containing 20% of fetal bovine serum (FBS), 2-mercaptoethanol (Invitrogen), L-glutamine (Invitrogen) and antibiotics (Invitrogen). The medium was changed every 2 days for both EMG7 ESCs and OP9 cells. For induction of Flk1+MPCs, EMG7 ESCs were cultured and plated on a 0.1% gelatin coated 100 p dish in the differentiation medium (alpha MEM, Invitrogen) with contained 10% FBS, 2-mercaptoethanol (Invitrogen), L-glutamine (Invitrogen) and antibiotics (Invitrogen) for 4.5 days (96-112 hours). The medium was changed every 2 days. At 4.5 days, differentiated EMG7 ESCs were harvested with 0.025% trypsin-EDTA and antigen recovery was performed in the differentiation medium for 30 minutes in an incubator. Then, cells were washed using phosphate buffered saline/10% FBS and attached with biotin-conjugated anti-mouse Flk1+ antibody (eBioscience) and […] MicroBeads (Miltenyi Biotec). Flk1+ MPCs were sorted by AutoMACS Pro Separator (Miltenyi Biotec). Sorted Flk1+ MPCs were plated onto the mitomycin-C (MMC) (Ag scientific) treated confluent OP9 cells at a density of 1-2×10^4 cells/cm^2 and cultured in the differentiation medium. The medium was changed every 2 days. CsA (a gift from Novartis Pharma, Korea) was treated in sorted Flk1+ MPCs on OP9 cells. CsA was dissolved in dimethyl sulfoxide (DMSO) (Sigma) and diluted 2┌ g/mL in the differentiation medium at the time of medium change. 10┌ M of Y27632 (purchased from Calbiochem) were treated in sorted Flk1+MPCs on OP9 cells and sorted MHC GFP+CMs at the time of medium change. Analysis and sorting for CMs were performed at day 10.5. We harvested differentiated Flk1+ MPCs on OP9 cells with 0.25% trypsin-EDTA or dissociation buffer (Invitrogen). Cardiac troponin-T (cTnT)+ and ┌ smooth muscle actin (SMA)+ cells were analyzed after permeabilization using Cytofix/Cytoperm solution (BD Biosciences) for 15 min. After permeabilization, the cells were incubated for 30 min with anti-mouse cTnT (NeoMarkers) monoclonal antibody. […] Data were analyzed using FlowJo Version 7.5.4 software (TreeStar).

Flk1+ MPCs [3] = test: Immunofluorescence staining of differentiating Flk1+ MPCs (CD144, αSMA, PHH3)
Method: Cultured cells were fixed with 2% paraformaldehyde (PFA) and blocked with 5% goat (or donkey) serum in PBST (0.3% Triton X-100 in PBS) for 1 hr at room temperature (RT). The cells were incubated overnight at 4┌ C with the following primary antibodies: anti-mouse CD144 (clone 11D4.1, BD Pharmingen™), anti-mouse phospho-histone H3 (rabbit polyclonal, Upstate), anti-mouse cTnT (NeoMarkers), Cy3-conjugated anti-┌ SMA (clone 1A4, Sigma), and anti-mouse CD31 (clone 2H8, Chemicon). After washing in PBST 4 times, the cells were incubated for 2 hrs at RT with the following secondary antibodies: Cy3-conjugated anti-rabbit IgG (Jackson ImmunoResearch), Cy3-conjugated anti-hamster IgG (Jackson ImmunoResearch), Cy3-conjugated anti-mouse IgG antibody (Jackson ImmunoResearch) and FITC or Cy3-conjugated anti-rat (Jackson ImmunoResearch). F-actin and nuclei were stained with TRITC-phalloidin (Invitrogen) and 4′,6-diamidino-2-phenylindole (DAPI, Invitrogen), respectively. The cells were then mounted in fluorescent mounting medium (DAKO Corporation).

Flk1+ MPCs [4] = test: Apoptosis assay (Annexin V/PI) in differentiating Flk1+ MPCs; conditions: 6 and 36 hrs
Method: Apoptosis assay was performed as previously described. To determine the cell cycle, BrdU/7-AAD cell cycle analysis was performed according to the manufacturer's instructions (BD Pharmingen™). Briefly, cells were incubated with BrdU (1 mM) for 1 hr, dissociated with dissociation buffer, and stained with anti-CD144 antibody. The cells were then fixed, permeabilized, and fixed once more, followed by 1 hr incubation with DNase I (200 U) at 37┌ C. After incubation with FITC-conjugated anti-BrdU antibody for 20 min at RT, the cells were stained with 7-AAD. The cells were analyzed by FACS Aria II and the data were analyzed using FlowJo software.

[5] = Y27632 10 μM plus CsA vs CsA only, day 10.5

C[C@@H](N)[C@H]1CC[C@H](C(=O)Nc2ccncc2)CC1 [Y27632]
adhesion of Flk1+ cells onto the plates compared to control (Flk1+ MPCs [1]): 1.3 fold | area of self-beating CMs (Flk1+ MPCs [2]; Y27632 10 μM plus CsA 2 μg/mL): strikingly increased | increase of cTnT+ CMs compared to control CsA only (Flk1+ MPCs [2]; Y27632 10 μM plus CsA 2 μg/mL, 6 days): ~1.9 fold | increase of area of cTnT+ CMs (Flk1+ MPCs [2]; [5]): ~2.3 fold | increase of area of αMHC GFP+ CMs (Flk1+ MPCs [2]; [5]): ~1.7 fold | population of PHH3+/CD144+ ECs compared to control (Flk1+ MPCs [3]; 36 hrs, Y27632 10 μM plus VEGF-A): 3.7 fold | number of surrounding αSMA+MCs (Flk1+ MPCs [3]; day 6.5, Y27632 10 μM): decreased | size and number of CD144+ EC colonies (Flk1+ MPCs [3]; day 6.5, Y27632 10 μM): increased | population of Annexin V+/PI- apoptotic cells (Flk1+ MPCs [4]): did not significantly change

— patent publication US20150368617A1, “METHOD FOR FORMING ENDOTHELIAL CELLS” (Korea Advanced Institute of Science and Technology (KAIST), priority 2012, published 2015)
